# Test results reported in patent US11707636B2, “Methods and devices for modulating cellular activity using ultrasound” (priority 2008, dated 2023).
# Entries after “also recorded” stand apart in the source; their conditions may differ.
# Experiments:
# motor cortex [1] = test system: motor cortex; set-up: species or system mice; conditions: mouse, in vivo
# [2] = test system: Na^+ transients in CA1 pyramidal neurons; format: cell-based, mice
# [3] = test system: Ca^2+ transients (OGB-1 signals) in neurons; format: cell-based, mice
# [4] = test system: synaptic vesicle exocytosis in hippocampal slice cultures; format: cell-based, mice
# motor cortex [5] = test system: motor cortex; set-up: species or system mice; conditions: mouse, in vivo; remark: listed apart in the source
smiles,measurement,setting,value
"NC1=N[C@H](O)[C@H]2[C@H]3O[C@]4(O)O[C@@H]([C@@H](O)[C@@]2(N1)[C@@H]4O)[C@]3(O)CO [TTX, tetrodotoxin]",US-evoked cortical activity,motor cortex [1],blocked
same,Na^+ transient response (ΔF/F0 CoroNa Green) to USW-1,[2],blocked
same,average presynaptic temporal response of OGB-1 to USW-1,[3],nearly abolishing
same,exocytosis (spH response) in response to low intensity ultrasound waveforms,[4],nearly abolishes; also recorded: nearly abolishing
same,US-evoked EMG activity / descending corticospinal circuit activity,motor cortex [5],blocks
